The record followed here is patent US20080113908A1, “Use of CRF receptor agonists for the treatment or Prophylaxis of diseases, for example Neurodegenerative diseases” (SmithKline Beecham plc, priority 2000, published 2008).

Assay [1] relates to cerebellar granule neurones. Description: Assay 3: intracellular cyclic AMP enzyme immunoassay. In kind it is cell-based, rat. The settings on record: agonist 0 to 30 nM, 15 min, 0.5 mM IBMX. Here is the method:
Assay 3: The production of cAMP by the CRF receptor agonist peptides CRF, urotensin 1, urocortin and sauvagine was measured as follows. This assay can be used analogously for any putative CRF receptor agonists including non-peptide agonists.
Intracellular cyclic AMP was measured with a cAMP 2-site enzyme immunoassay system (trade mark BIOTRAK, commercially available from Amersham Pharmacia Biotech, PO Box 164, Rainham, Essex RM13 8JZ, United Kingdom, Amersham catalogue number RPN225), based upon the use of a sensitive and highly specific capture antibody for cyclic AMP:
Cerebellar granule neurones were seeded in polylysine-coated […] plates, 3.5×10^5 cells per 48-well, in Basal medium Eagle's containing 10% fetal calf serum, 25 mM KCl, and antibiotics. At 8-9 days in vitro, granule neurone cultures were shifted to serum-free plating medium (0.4 ml) with 0.5 mM IBMX (to inhibit the breakdown of cyclic AMP) for 15 min (37° C.). Wells then received 0.1 ml of test peptide (5× final concentration). Generally 1 μM is the preferable final concentration for a putative CRF agonist under test, though different (e.g. lower) concentrations can be used as shown for the peptide agonists in FIG. 3. Incubation was continued for 15 min. Test medium was removed and the plate placed on dry ice, and stored at −140° C. Cyclic AMP analysis was performed the following day.
Cells were then lysed with the reagent provided with the BIOTRAK kit. Intracellular content of cyclic AMP in the lysates was assayed following the manufacturer's instructions. A standard curve was constructed using the cyclic AMP calibration provided, with the quantity of bound cyclic AMP being inversely proportional to the amount of second (chromogenic) antibody bound to the reaction wells. The colour product was read with an ELISA plate reader, and was a function of the amount of cyclic AMP in the unknown sample.

Assay [2] concerns the target cerebellar granule neurones. The class given is cell-based, rat. The settings on record: 48 h. The method, then: Cerebellar granule neurones were used in the examples to test neuroprotection by CRF receptor agonists. Cerebellar granule neurones (CGNs) undergo apoptosis during the first few weeks of postnatal life, and in culture require mildly depolarising concentrations of KCl (25 mM) for their survival and maturation (S. R: D'Mello et al., Proc. Natl. Acad. Sci. USA 90, 10989-10993, 1993). The growth signal provided by KCl depends upon activation of the phosphatidylinositol 3-kinase (PI 3-kinase) pathway, and pharmacological inhibition of PI 3-kinase in differentiated granule neurones leads to apoptotic death in the CGNs (T. M. Miller et al., J. Biol. Chem., 272, 9847-9853, 1997). Thus, cultured CGNs represent a suitable model to study mechanisms of programmed cell death, and to identify putative neuroprotective signalling pathways.
Assay 1: Cerebellar granule neurones prepared from postnatal day 8 Sprague Dawley rat pups were used for experiments on death induced by inhibition of PI 3-kinase. General culture methods are described in S. D. Skaper et al. in Methods in Neurosciences, Vol. 2 (Conn P. M., ed), pp. 17-33. Academic Press, San Diego, 1990. At 8-9 days in vitro (DIV), granule neurone cultures were shifted to phenol red-free Dulbecco's modified Eagle's medium lacking serum, and containing 0.05% bovine serum albumin and 25 mM KCl. Death was induced by addition of the PI 3-kinase inhibitor LY 294002 (75 μM). CRF or CRF agonist peptides (urotensin 1, urocortin, sauvagine) were added at different concentrations (from 0.3nM to 300 nM or 1000 nM) together with LY 294002. Forty-eight hours later neuronal survival was quantified by a colorimetric reaction MTT. Absolute MTT values obtained were normalised for small differences in interexperiment plating densities by scaling to the mean of sham-treated sister cultures (defined as 100%).
Results are shown in Table 1 below and in graphical form in FIG. 1, which show the percentage mean neuronal survival (and standard deviation), when in the presence of the relevant CRF receptor agonists and LY 294002, as a function of agonist concentration. […] Urotensin 1, urocortin and sauvagine were also neuroprotective albeit with lower potency (<1 μM).

A further assay deals with hippocampal neurones. Briefly: Amyloid-β peptide (25-35) toxicity, survival by counting viable neurons (FIGS. 8, 9). In kind it is cell-based. Conditions: Aβ(25-35) 10 μM, CRF 3-100 nM, 3 days. The method, then: In order to test whether CRF receptor agonists protect neurones from death caused by Aβ, the following experiment was conducted (FIGS. 8 and 9). Hippocampal neurons from embryonic day 18 rat were cultured in serum-free medium (neurobasal/B27) for 9 days. The culture methods are described on page 48 of S. D. Skaper et al., J. Neurochem., 2001, 76, 47-55. Cells were then treated with amyloid-β peptide (fragment 25-35) (Sigma, cat. no. A-4559, sequence Gly-Ser-Asn-Lys-Gly-Ala-Ile-Ile-Gly-Leu-Met) at 10 μM plus the indicated CRF receptor agonist at the indicated concentration, in the same culture medium. […] Cell survival was assessed after 3 days, by fixing the cultures and counting microscopically viable neurons. Values are expressed relative to numbers of surviving neurons in untreated cultures (=100).

Assay [3] relates to cerebellar granule neurons. Description: Delayed addition of CRF after LY 294002, variation of Assay 1 (FIGS. 6A, 6B). The class given is cell-based, rat. Here is the method: FIGS. 6A and 6B show neuronal survival results, using a variation of Assay 1 in which CRF (10 nM) was added at varying times (shown in hours) following LY 294002 (75 μM) addition. Therefore, granule neurons were cultured with the PI 3-kinase inhibitor LY 294002 (75 μM) in the presence of 10 nM CRF, added together with LY 294002 or at different times (shown in hours) following LY 294002 addition. FIG. 6A is the result from one experiment only. […] It appears from FIG. 6A that the neuroprotective effect is sustained when adding CRF at about 1-4 hrs after LY 294002 addition. From FIG. 6B, it appears that the neuroprotective effect is sustained when adding CRF up to 8 hours after LY 294002 addition.

With “H-SQEPPISLDLTFHLLREVLEMTKADQLAQQAHNNRKLLDIA-NH2 [CRF]”, in assay [1], the “cAMP synthesis induced by agonist (FIG. 3)” value is “cAMP production increased with agonist concentration”. For the same substance, in assay [2], the EC50 (usually the concentration at which the effect is half-maximal) is ~10 nM. In addition, the “neuroprotective effect against Aβ toxicity (FIG. 8)” value in the assay on hippocampal neurones is 40-50%. Further, the “neuroprotective effect with delayed CRF addition” value in assay [3] (CRF 10 nM added 10, 24 and 32 hours after LY 294002 75 μM) is listed as “Only a small neuroprotective effect”; in assay [3] (CRF 10 nM added 46 hours after LY 294002 75 μM), “no neuroprotection”. In addition, the “time of CRF addition after LY 294002 at which neuroprotective effect is sustained (FIG. 6A)” value in assay [3] (CRF 10 nM, LY 294002 75 μM, one experiment) lay in the range of 1 to 4 h. For the same substance, in assay [3] (CRF 10 nM, LY 294002 75 μM, two experiments combined), the “time of CRF addition after LY 294002 at which neuroprotective effect is sustained (FIG. 6B)” value is “up to 8 hours”.
